According to US10159655B2, “Agent for inhibiting odor of pyrazine derivatives” (Kao Corporation, priority 2012, dated 2018):

Target: T1, olfactory receptor OR5K1 (Homo sapiens, UniProt Q8NHB7)
T1 construct: expressed in transfected cells; host or cells: HEK293
T1 sequence (Q8NHB7 1-308): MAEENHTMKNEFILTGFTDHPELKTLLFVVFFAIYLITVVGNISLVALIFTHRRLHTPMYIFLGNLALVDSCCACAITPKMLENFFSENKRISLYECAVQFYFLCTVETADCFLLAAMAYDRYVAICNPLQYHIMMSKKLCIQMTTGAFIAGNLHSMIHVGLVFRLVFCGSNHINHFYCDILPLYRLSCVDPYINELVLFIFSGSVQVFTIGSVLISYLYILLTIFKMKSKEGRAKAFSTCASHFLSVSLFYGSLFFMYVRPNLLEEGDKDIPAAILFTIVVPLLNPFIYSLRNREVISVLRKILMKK
Assay: Luciferase reporter gene assay: response of olfactory receptor OR5K1 expressed in HEK293 cells to pyrazine compounds
Assay type: cell-based
Conditions: 0, 3, 10, 30, 100, 300 and 1000 μM; HEK293 cells with RTP1S variant; FIG. 2
From the text: Human olfactory receptors were cloned based on sequence information registered in GenBank by PCR using human genomic DNA female (G1521: Promega Corporation) as a template. Each gene amplified by PCR was inserted into a pENTR vector (Invitrogen Inc.) in accordance with the manual and was recombined into the NotI and AscI site located downstream of a Flag-Rho tag sequence in a pME18S vector using the NotI and AscI site present in the pENTR vector.
An RTP1S variant gene (SEQ ID NO: 3) encoding an RTP1S variant (SEQ ID NO: 4) was inserted into the EcoRI and XhoI site of a pME18S vector.
HEK293 cells expressing 373 types of human olfactory receptors were produced. A reaction solution having a composition shown in Table 1 was prepared and left to stand in a clean bench for 15 min and then was dispensed in each well of a 96-well plate (Becton, Dickinson and Company). Subsequently, HEK293 cells (100 μL, 3×10^5 cells/cm^2) were seeded in each well and cultured in an incubator at 37° C. and 5% CO2 for 24 hr.
An olfactory receptor expressed in HEK293 cells couples with endogenous Gas in the cells to activate adenylate cyclase and thereby increases the amount of intracellular cAMP. In this study, the response of a pyrazine derivative was measured by luciferase reporter gene assay which monitors an increase in amount of intracellular cAMP as the luminescence value derived from a firefly luciferase gene (fluc2P-CRE-hygro). A Renilla luciferase gene was fused downstream of a CMV promoter (hRluc-CMV) and was also introduced to HEK293 cells as an internal standard to correct errors in transgenic efficiency and number of cells.
The culture medium was removed from the culture produced in the above 3), and 75 μL of a solution prepared with a CD293 medium (Invitrogen Inc.) so as to contain a pyrazine derivative (1 mM, 2,6-dimethylpyrazine) was added thereto. The cells were cultured in a CO2 incubator for 2.5 hr to sufficiently express the luciferase gene in the cells. The luciferase activity was measured with a Dual-Glo™ luciferase assay system (Promega Corporation) in accordance with the operating manual of the system. The fold increases were calculated by dividing the luminescence value derived from firefly luciferase induced by stimulation with a pyrazine derivative at each concentration by the luminescence value in cells not stimulated with the pyrazine derivative and were used as an index of response strength.
Olfactory receptor OR5K1 (SEQ ID NO: 2) was expressed in HEK293 cells together with an RTP1S variant (SEQ ID NO: 4) by the same procedure as in Example 1, and the dependency of the response on the concentration (0, 3, 10, 30, 100, 300, and 1000 μM) of various pyrazine compounds was investigated. The pyrazine compounds used in this Example were pyrazine and pyrazine derivatives selected from the group consisting of 2-methylpyrazine, 2,3-dimethylpyrazine, 2,5-dimethylpyrazine, 2,3,5-trimethylpyrazine, 2,3,5,6-tetramethylpyrazine, and 2-ethylpyrazine.

| Structure (SMILES) | dependency of the response of OR5K1 on the concentration of pyrazine compounds |
| --- | --- |
| Cc1cnccn1 [2-methylpyrazine] | dose-dependently responded |
| c1cnccn1 [pyrazine] | did not respond |
| Cc1cnc(C)c(C)n1 [2,3,5-trimethylpyrazine] | dose-dependently responded |
| Cc1cncc(C)n1 [2,6-dimethylpyrazine] | dose-dependently responded |
| Cc1nc(C)c(C)nc1C [2,3,5,6-tetramethylpyrazine] | dose-dependently responded |
| Cc1cnc(C)cn1 [2,5-dimethylpyrazine] | dose-dependently responded |
| Cc1nccnc1C [2,3-dimethylpyrazine] | dose-dependently responded |
| CCc1cnccn1 [2-ethylpyrazine] | dose-dependently responded |

Same assay, conditions: 1 mM; 373 types of human olfactory receptors screened in HEK293 cells; FIG. 1

| Structure (SMILES) | response of olfactory receptor to 2,6-dimethylpyrazine (fold increase of luciferase luminescence) |
| --- | --- |
| Cc1cncc(C)n1 [2,6-dimethylpyrazine] | responded |
